The target of assay [1] is T1, human Cot catalytic domain (30-397 amino acids) (Homo sapiens, UniProt P41279).
T1 construct: Purified recombinant human Cot catalytic domain (30-397 amino acids) was purchased from Cama Biosciences; purchased Cama Biosciences (so in the source)
Description: High Throughput Cot Biochemical Assay (KinEASE TR-FRET). The conditions noted are these: Cot KinEASE TR-FRET, 400 μM ATP; read-out: IC50 HTRF. The method in brief: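 Reaction of 5 nM recombinant human Cot catalytic domain (aa 30-397) with 1 μM STK3 peptide (XL665-labeled) and 400 μM ATP in 10 mM MOPS pH 7.0, 10 mM MgOAc, 1 mM DTT, 0.5 mg/mL BSA, 0.1% DMSO. Phosphopeptide detected by TR-FRET with europium anti-phospho antibody.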

For assay [2], the system named is TNFα production in LPS-stimulated human monocytes. Description: Cot Monocyte TNFα Cell Based Assay. The conditions noted are these: Homo sapiens, Monocyte, LPS-stimulated human monocytes, TNFα TR-FRET; read-out: EC50 TNF. The method in brief: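 Cells at 5,000/well were pretreated with compound for 1 h at 37 °C (0.5% DMSO final), then stimulated with 50 pg/ml LPS for 4 h at 37 °C. Supernatant TNFα was measured by two-antibody TR-FRET after overnight room-temperature incubation; values are percent of control between unstimulated and stimulated wells.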
Background: TR-FRET usually uses a lanthanide donor and a delayed reading to cut background.

Some results are limits rather than exact numbers.

T1 sequence (P41279 30-397): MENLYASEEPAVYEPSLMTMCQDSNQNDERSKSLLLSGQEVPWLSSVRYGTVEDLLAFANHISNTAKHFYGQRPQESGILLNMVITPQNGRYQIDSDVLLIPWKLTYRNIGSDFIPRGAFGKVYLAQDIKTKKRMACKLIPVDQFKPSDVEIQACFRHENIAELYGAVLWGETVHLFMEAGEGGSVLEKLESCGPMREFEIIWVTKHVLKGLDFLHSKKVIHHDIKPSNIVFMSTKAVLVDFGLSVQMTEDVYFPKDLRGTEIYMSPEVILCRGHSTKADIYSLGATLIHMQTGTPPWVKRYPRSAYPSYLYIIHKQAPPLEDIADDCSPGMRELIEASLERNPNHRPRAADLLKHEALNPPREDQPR

The IC50 is the concentration that gives 50% inhibition. For orientation: EC50 means the concentration needed to bring the measured effect to its halfway point. As to `Cc1c(C#N)cccc1[C@H](Nc1cc(Cl)c2ncc(C#N)c(NCC(C)(C)C(F)(F)F)c2c1)c1cn(C2(C3CC3)CC2)nn1` [Example 1105, (S)-6-(((1-([1,1'-bi(cyclopropan)]-1-yl)-1H-1,2,3-triazol-4-yl)(3-cyano-2-methylphenyl)methyl)amino)-8-chloro-4-((3,3,3-trifluoro-2,2-dimethylpropyl)amino)quinoline-3-carbonitrile], the IC50 in assay [1] came out at 5 nM. For the same molecule, the EC50 in assay [2] came to 90 nM.
`Cc1c(C#N)cccc1[C@H](Nc1cc(Cl)c2ncc(C#N)c(NCC(C)(C)C(F)(F)F)c2c1)c1cn([C@@H](C)CF)nn1` [Example 1106, 8-chloro-6-(((S)-(3-cyano-2-methylphenyl)(1-((S)-1-fluoropropan-2-yl)-1H-1,2,3-triazol-4-yl)methyl)amino)-4-((3,3,3-trifluoro-2,2-dimethylpropyl)amino) quinoline-3-carbonitrile]: the IC50 in assay [1] worked out at 5 nM. Moreover, in assay [2], the EC50 amounted to 76 nM.
For `Cc1c(C#N)cccc1[C@H](Nc1cc(Cl)c2ncc(C#N)c(NCC(C)(C)C(F)(F)F)c2c1)c1cn(C23CC(C2)C3)nn1` [Example 1107, (S)-6-(((1-(bicyclo[1.1.1]pentan-1-yl)-1H-1,2,3-triazol-4-yl)(3-cyano-2-methylphenyl)methyl)amino)-8-chloro-4-((3,3,3-trifluoro-2,2-dimethylpropyl)amino) quinoline-3-carbonitrile] the same measures were 3 nM and 65 nM.
Take `Cc1c(C#N)cccc1[C@H](Nc1cc(Cl)c2ncc(C#N)c(NCC(C)(C)C)c2c1)c1cn(C23CC(C2)C3)nn1` [Example 1108, (S)-6-(((1-(bicyclo[1.1.1]pentan-1-yl)-1H-1,2,3-triazol-4-yl)(3-cyano-2-methylphenyl)methyl)amino)-8-chloro-4-(neopentylamino) quinoline-3-carbonitrile]: the IC50 in assay [1] was found to be 4 nM. Further, the EC50 in assay [2] was 31 nM.
The like results for `Cc1c(C#N)cccc1[C@H](Nc1cc(Cl)c2ncc(C#N)c(NCC(C)(C)C)c2c1)c1cn(C2(C3CC3)CC2)nn1` [Example 1109, (S)-6-(((1-([1,1'-bi(cyclopropan)]-1-yl)-1H-1,2,3-triazol-4-yl)(3-cyano-2-methylphenyl)-methyl)amino)-8-chloro-4-(neopentylamino)quinoline-3-carbonitrile] were, in that order, 5 nM and 57 nM.
Turning to `Cc1nnc(C2(n3cc([C@@H](Nc4cc(Cl)c5ncc(C#N)c(NCC(C)(C)C)c5c4)c4ccccc4Cl)nn3)CC2)o1` [Example 1110, (S)-8-chloro-6-(((2-chlorophenyl)(1-(1-(5-methyl-1,3,4-oxadiazol-2-yl)cyclopropyl)-1H-1,2,3-triazol-4-yl)methyl)amino)-4-(neopentylamino)quinoline-3-carbonitrile], the IC50 in assay [1] turned out to be 26 nM. Moreover, the EC50 in assay [2] is 79 nM.
Regarding `[2H]C(Nc1cc(C#N)c2ncc(C#N)c(NCC(C)(C)C)c2c1)(c1cn(C2(C(F)F)CC2)nn1)c1ccccc1Cl` (stereo not shown) [Example 1111, 6-(((2-chlorophenyl)(1-(1-(difluoromethyl)cyclopropyl)-1H-1,2,3-triazol-4-yl)methyl-d)amino)-4-(neopentylamino)-quinoline-3,8-dicarbonitrile], in assay [1], the IC50 was 13 nM. In assay [2], the EC50 came out at 98 nM.
For `CC(C)(C)CNc1c(C#N)cnc2c(Cl)cc(N[C@H](c3cn(C4(C(F)(F)F)CC4)nn3)c3cccc(C(=O)O)c3F)cc12` [Example 1112, (S)-3-(((8-chloro-3-cyano-4-(neopentylamino)quinolin-6-yl)amino)(1-(1-(trifluoromethyl)cyclopropyl)-1H-1,2,3-triazol-4-yl)methyl)-2-fluorobenzoic acid], the IC50 in assay [1] came to 76 nM. Besides, the half-maximal effective concentration (EC50) in assay [2] was at least 1000 nM.
For `CN(C)C(=O)c1cccc([C@H](Nc2cc(Cl)c3ncc(C#N)c(NCC(C)(C)C)c3c2)c2cn(C3(C(F)(F)F)CC3)nn2)c1F` [Example 1113, (S)-3-(((8-chloro-3-cyano-4-(neopentylamino)quinolin-6-yl)amino)(1-(1-(trifluoromethyl)cyclopropyl)-1H-1,2,3-triazol-4-yl)methyl)-2-fluoro-N,N-dimethylbenzamide] the same measures were 22 nM and 444 nM.
As for `CNC(=O)c1cccc([C@H](Nc2cc(Cl)c3ncc(C#N)c(NCC(C)(C)C)c3c2)c2cn(C3(C(F)(F)F)CC3)nn2)c1F` [Example 1114, (S)-3-(((8-chloro-3-cyano-4-(neopentylamino)quinolin-6-yl)amino)(1-(1-(trifluoromethyl)cyclopropyl)-1H-1,2,3-triazol-4-yl)methyl)-2-fluoro-N-methylbenzamide], the IC50 in assay [1] was determined as 5 nM. For the same molecule, the EC50 in assay [2] was determined as 408 nM.
For `CC(C)(C)CNc1c(C#N)cnc2c(Cl)cc(N[C@H](c3cn(C4(C(F)(F)F)CC4)nn3)c3cccc(C(N)=O)c3F)cc12` [Example 1115, (S)-3-(((8-chloro-3-cyano-4-(neopentylamino)quinolin-6-yl)amino)(1-(1-(trifluoromethyl)cyclopropyl)-1H-1,2,3-triazol-4-yl)methyl)-2-fluorobenzamide] the same measures were 6 nM and 176 nM.
For `CNC(=O)c1cc([C@H](Nc2cc(Cl)c3ncc(C#N)c(NCC(C)(C)C)c3c2)c2cn(C3(C(F)(F)F)CC3)nn2)ccc1F` [Example 1116, (S)-5-(((8-chloro-3-cyano-4-(neopentylamino)quinolin-6-yl)amino)(1-(1-(trifluoromethyl)cyclopropyl)-1H-1,2,3-triazol-4-yl)methyl)-2-fluoro-N-methylbenzamide] the same measures were 38 nM and at least 1000 nM.
As for `CC(C)(C)CNc1c(C#N)cnc2c(Cl)cc(N[C@@H](c3ccc(F)c(C(N)=O)c3)c3cn(C4(C(F)(F)F)CC4)nn3)cc12` [Example 1117, (S)-5-(((8-chloro-3-cyano-4-(neopentylamino)quinolin-6-yl)amino)(1-(1-(trifluoromethyl)cyclopropyl)-1H-1,2,3-triazol-4-yl)methyl)-2-fluorobenzamide], the IC50 in assay [1] is 29 nM. Besides, in assay [2], the EC50 turned out to be 561 nM.
For `Cc1c(-c2ccccn2)cccc1[C@H](Nc1cc(Cl)c2ncc(C#N)c(NCC(C)(C)C)c2c1)c1cn(C2(C(F)(F)F)CC2)nn1` [Example 1118, (S)-8-chloro-6-(((2-methyl-3-(pyridin-2-yl)phenyl)(1-(1-(trifluoromethyl)cyclopropyl)-1H-1,2,3-triazol-4-yl)methyl)amino)-4-(neopentylamino)quinoline-3-carbonitrile], the IC50 in assay [1] worked out at 28 nM. Further, the EC50 in assay [2] amounted to 921 nM.
For `Cc1c(-c2cn(C)cn2)cccc1[C@H](Nc1cc(Cl)c2ncc(C#N)c(NCC(C)(C)C)c2c1)c1cn(C2(C(F)(F)F)CC2)nn1` [Example 1119, (S)-8-chloro-6-(((2-methyl-3-(1-methyl-1H-imidazol-4-yl)phenyl)(1-(1-(trifluoromethyl)cyclopropyl)-1H-1,2,3-triazol-4-yl)methyl)amino)-4-(neopentylamino)quinoline-3-carbonitrile], the IC50 in assay [1] is 11 nM. In assay [2], the EC50 was determined as 351 nM.
Consider `Cc1c(-c2cncn2C)cccc1[C@H](Nc1cc(Cl)c2ncc(C#N)c(NCC(C)(C)C)c2c1)c1cn(C2(C(F)(F)F)CC2)nn1` [Example 1120, (S)-8-chloro-6-(((2-methyl-3-(1-methyl-1H-imidazol-5-yl)phenyl)(1-(1-(trifluoromethyl)cyclopropyl)-1H-1,2,3-triazol-4-yl)methyl)amino)-4-(neopentylamino)quinoline-3-carbonitrile], for which, in assay [1], the IC50 was 6 nM. Moreover, the EC50 in assay [2] worked out at 88 nM.
Take `Cc1c(-c2ccnnc2)cccc1[C@H](Nc1cc(Cl)c2ncc(C#N)c(NCC(C)(C)C)c2c1)c1cn(C2(C(F)(F)F)CC2)nn1` [Example 1121, (S)-8-chloro-6-(((2-methyl-3 (pyridazin-4-yl)phenyl)(1-(1-(trifluoromethyl)cyclopropyl)-1H-1,2,3-triazol-4-yl)methyl)amino)-4-(neopentylamino)quinoline-3-carbonitrile]: in assay [1], the IC50 was found to be 2 nM. Moreover, the EC50 in assay [2] is 59 nM.
As to `Cc1c(-c2cncn2C)cccc1[C@H](Nc1cc(Cl)c2ncc(C#N)c(NCC(C)(C)C)c2c1)c1cn(C2(C(F)F)CC2)nn1` [Example 1122, (S)-8-chloro-6-(((1-(1-(difluoromethyl)cyclopropyl)-1H-1,2,3-triazol-4-yl)(2-methyl-3-(1-methyl-1H-imidazol-5-yl)phenyl)methyl)amino)-4-(neopentylamino)quinoline-3-carbonitrile], the IC50 in assay [1] was determined as 2 nM. Moreover, the EC50 in assay [2] is 47 nM.
On to `Cc1c(-c2ccnnc2)cccc1[C@H](Nc1cc(Cl)c2ncc(C#N)c(NCC(C)(C)C)c2c1)c1cn(C2(C(F)F)CC2)nn1` [Example 1123, (S)-8-chloro-6-(((1-(1-(difluoromethyl)cyclopropyl)-1H-1,2,3-triazol-4-yl)(2-methyl-3-(pyridazin-4-yl)phenyl)methyl)amino)-4-(neopentylamino)quinoline-3-carbonitrile], for which the IC50 in assay [1] was found to be 2 nM. Also, the EC50 in assay [2] was found to be 42 nM.
Regarding `CC(C)(C)CNc1c(C#N)cnc2c(C#N)cc(N[C@@H](c3ccccc3)c3cn(C45CC(C4)C5)nn3)cc12` [Example 1124, (S)-6-(((1-(bicyclo[1.1.1]pentan-1-yl)-1H-1,2,3-triazol-4-yl)(phenyl)methyl)amino)-4-(neopentylamino)quinoline-3,8-dicarbonitrile], the IC50 in assay [1] was found to be 4 nM. For the same molecule, the EC50 in assay [2] came to 138 nM.
